# PubChem BioAssay AID2060495 (Molecular Pharmacology Branch, DTP, NCI, 2025)
# System: 521955-158-R2-J5-PDC complex spheroid viability
# Assay: Anticancer human tumor 521955-158-R2-J5-PDC patient-derived pancreatic carcinoma cell line growth inhibition [GQUAD]
# Settings: for IC50: curve of first compound; for viability, T/C: stronger effect = lower value
# Text: DNA G-quadruplex Stabilizer Agents in Combinations in Complex Spheroids
# A high-throughput screen of multi-cell type tumor spheroids was designed to identify active combinations of DNA G-quadruplex stabilizer agents and targeted small molecules. Complex spheroids include a stromal component modeled by human endothelial cells (HUVEC) and fibroblasts modeled by human mesenchymal stem cells (MSCs). The concentration ranges selected for each drug and investigational agent were based upon clinically achievable concentrations if the clinical Cmax of the agent was known.
# Compounds. The drugs and investigational agents: pidnarulex (CX-5461; NSC782164), APTO-253 (NSC789042), BRACO-19 (NSC847499), peposertib (NSC802822), ceralasertib (NSC780249), elimusertib (NSC800525), camonsertib (NSC841442), AZD-1390 (NSC803789), olaparib (NSC753686), talazoparib (NSC767125), ART-558 (NSC835418), sotorasib (NSC818433), MRTX-1133 (NSC836407), SN-38 (NSC673596), topotecan (NSC609699), etoposide (NSC141540), doxorubicin (NSC123127), gemcitabine (NSC613327), 5-fluorouracil (NSC19893), paclitaxel (NSC125973), vemurafenib (NSC761431), panobinostat (NSC761190), R-306465 (JNJ-16241199; NSC773264), adavosertib (NSC754352), TP-3654 (NSC805149), carboplatin (NSC241240), KSQ-4279 (NSC840948), and staurosporine (NSC755774) were obtained from the National Cancer Institute (NCI) Developmental Therapeutics Program Chemical Repository (34). The FDA-approved anticancer drug set is available from the NCI Developmental Therapeutics Program. […] The stock solutions were prepared in dimethyl sulfoxide (DMSO, Sigma-Aldrich, St. Louis, MO, cat. D2650) at 800-fold the tested concentration and stored at -70 degrees C prior to their use. All drugs and investigational agents were tested over a range starting from a high concentration at or near the clinical Cmax and decreasing in half-log increments. If the clinical Cmax for an agent had not been determined, the highest concentration tested was 10 microM.
# 2.3 Cell Culture. All cells were maintained in an incubator at 37 degrees C and 5% CO2 with 95% humidity. The PDC lines were cultured according to standard operating procedures established by the NCI PDMR. All PDCs were thawed and cultured in Matrigel-coated flasks prepared with a working solution of 1X Ham's F-12 nutrient mix, without supplementation (Invitrogen, cat. 11765054), 100 U/mL penicillin-streptomycin (Invitrogen, cat. 15140122), and 2.5% Matrigel (Corning Inc., cat. 354248) for the first three passages. The 857933-349-R-J2-PDC line was cultured in 6C/Colon 1B media, which includes advanced DMEM/F-12 (Thermo Fisher Scientific, cat. 12634028), 10 mM HEPES (Thermo Fisher Scientific, cat. 15630080), 1X GlutaMAX supplement (Thermo Fisher Scientific, cat. 35050061), 0.1 mg/mL primocin (InvivoGen, cat. ant-pm-2), 10% defined fetal bovine serum, heat inactivated (HyClone Laboratories Inc., cat. SH30070.03HI), 50% L-WRN conditioned media (ATCC, cat. CRL-3276), 1.25 mM N-Acetyl-L-cysteine (Sigma-Aldrich, cat. A9165), 10 mM nicotinamide (Sigma-Aldrich, cat. N0636), 1X B-27 supplement (Thermo Fisher Scientific, cat. 17504044), 1X N-2 supplement (Thermo Fisher Scientific, cat. 17502048), 10 microM Y-27632 dihydrochloride (Tocris Bioscience, cat. 1254), and 50 ng/mL human EGF recombinant protein (Thermo Fisher Scientific, cat. PHG0311). The 485176-168-R4-J1-PDC line was cultured in Panc media, which includes all 6C/Colon 1B media components plus 100 ng/mL human FGF-10 (Thermo Fisher Scientific, cat. 100-26), 500 nM SB-431542 (Selleckchem, cat. S1067), and gastrin (Tocris, cat. 3006).
# […]
# 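Also: spheroids exposed to agents for one week before reading.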
# 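For viability, T/C in this document: 100% = DMSO vehicle control viability.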
smiles,measurement,setting,value
C=CCn1c(=O)c2cnc(Nc3ccc(N4CCN(C)CC4)cc3)nc2n1-c1cccc(C(C)(C)O)n1 + Cc1cnc(CNC(=O)c2c(=O)c3ccc(N4CCCN(C)CC4)nc3n3c2sc2ccccc23)cn1,IC50,second compound 0.0316 µM,77.1 nM
same,IC50,second compound 0.1 µM,124 nM
same,IC50,second compound 0.316 µM,< 31.6 nM
same,IC50,second compound 1 µM,< 31.6 nM
same,IC50,second compound 3.16 µM,< 31.6 nM
same,IC50,second compound 10 µM,< 31.6 nM
same,"viability, T/C","second compound 0.0316 µM, first compound 0.0316 µM",67%
same,"viability, T/C","second compound 0.0316 µM, first compound 0.1 µM",44.9%
same,"viability, T/C","second compound 0.0316 µM, first compound 0.316 µM",19.5%
same,"viability, T/C","second compound 0.0316 µM, first compound 1 µM",10%
same,"viability, T/C","second compound 0.0316 µM, first compound 3.16 µM",7.12%
same,"viability, T/C","second compound 0.0316 µM, first compound 10 µM",11.2%
same,"viability, T/C","second compound 0.1 µM, first compound 0.0316 µM",53.5%
same,"viability, T/C","second compound 0.1 µM, first compound 0.1 µM",56%
same,"viability, T/C","second compound 0.1 µM, first compound 0.316 µM",30.3%
same,"viability, T/C","second compound 0.1 µM, first compound 1 µM",17.6%
same,"viability, T/C","second compound 0.1 µM, first compound 3.16 µM",13.1%
same,"viability, T/C","second compound 0.1 µM, first compound 10 µM",11.6%
same,"viability, T/C","second compound 0.316 µM, first compound 0.0316 µM",35.1%
same,"viability, T/C","second compound 0.316 µM, first compound 0.1 µM",45.4%
same,"viability, T/C","second compound 0.316 µM, first compound 0.316 µM",28.4%
same,"viability, T/C","second compound 0.316 µM, first compound 1 µM",20.1%
same,"viability, T/C","second compound 0.316 µM, first compound 3.16 µM",15.9%
same,"viability, T/C","second compound 0.316 µM, first compound 10 µM",11.2%
same,"viability, T/C","second compound 1 µM, first compound 0.0316 µM",17.4%
same,"viability, T/C","second compound 1 µM, first compound 0.1 µM",19.6%
same,"viability, T/C","second compound 1 µM, first compound 0.316 µM",21.1%
same,"viability, T/C","second compound 1 µM, first compound 1 µM",17.7%
same,"viability, T/C","second compound 1 µM, first compound 3.16 µM",14.3%
same,"viability, T/C","second compound 1 µM, first compound 10 µM",10.1%
same,"viability, T/C","second compound 3.16 µM, first compound 0.0316 µM",13.3%
same,"viability, T/C","second compound 3.16 µM, first compound 0.1 µM",16.3%
same,"viability, T/C","second compound 3.16 µM, first compound 0.316 µM",17.8%
same,"viability, T/C","second compound 3.16 µM, first compound 1 µM",11.6%
same,"viability, T/C","second compound 3.16 µM, first compound 3.16 µM",11.7%
same,"viability, T/C","second compound 3.16 µM, first compound 10 µM",2.19%
same,"viability, T/C","second compound 10 µM, first compound 0.0316 µM",11.6%
same,"viability, T/C","second compound 10 µM, first compound 0.1 µM",15%
same,"viability, T/C","second compound 10 µM, first compound 0.316 µM",15.4%
same,"viability, T/C","second compound 10 µM, first compound 1 µM",8.4%
same,"viability, T/C","second compound 10 µM, first compound 3.16 µM",0.28%
same,"viability, T/C","second compound 10 µM, first compound 10 µM",0.23%
